# Measurements: patent US20250129127A1, “Systems for Amplification of AAV Rep and Cap Proteins” (priority 2022, published 2025)
# Read-outs that look alike come from different tables or passages of the source.
# Columns and labels:
# AAV viral genomes = experiment: Titer of capsids encapsidating the viral genome by nuclease treatment and qPCR after induction with doxycycline and tamoxifen; assay type: cell-based; conditions: 1000 uM MSX; Fuji cell culture media lacking Gln; compared to T223 cells not exposed to MSX
# Method: (§1) Capsid ELISA was performed to determine total capsid titer. Nuclease treatment and qPCR were performed to determine the titer of capsids encapsidating the viral genome (e.g., the payload construct). […] Fuij 7-2 cell media with 4 mM glutamax was used in the cell culture.
# AAV capsid = experiment: Capsid ELISA for total capsid titer after induction; assay type: cell-based; conditions: 1000 uM MSX; Fuji cell culture media lacking Gln; compared to T223 cells not exposed to MSX
# Method: as §1
# T223 cells = test system: T223 cells
# Text: FIG. 9 provides a schematic for GS repression/inhibition for the pathways described in FIG. 8. A GS-KO P2 cell line is independently transfected with the various Rep/Cap GS constructs (see above and FIG. 8). P3 cells are selected in cell culture media lacking glutamine (-Gln) to select for cells expressing a higher level of GS.
structure (smiles),measurement,setting,value
"CS(=N)(=O)CC[C@H](N)C(=O)O (some centres unmarked) [MSX, methionine sulfoximine]",viral genomes (vg/mL) in T223 cells,AAV viral genomes,increased levels
same,viral particles (Capsids/mL) in T223 cells,AAV capsid,increased levels
same,MSX concentration from which survival is impacted,T223 cells; P3 T223 cells expressing wild type GS,≥ 250 µM
same,MSX concentration from which survival is impacted,"T223 cells; T223 cells expressing full length GS, selective media",≥ 250 µM
same,reduction of viability,"T223 cells; T223 cells, 500 uM MSX (of 50, 100, 250, 500 uM tested)",most effective in reducing viability
